Assay results published in patent US20040156742A1, “Synergistically-effective cyclohexylethan-1-yl ester mixtures as malodour counteractants as measured physiologically and psychometrically and methods for using same” (priority 2003, published 2004).

Experiment: Adaptation curves: % odour pulses correctly identified versus inter-stimulus interval (FIGS. 9C, 9D)
Assay type: in vivo, human
Conditions: pulse length 200 microseconds
From the text: as it applies to individual malodour molecules and individual fragrance molecules is set forth in Jacob et al., “Psychometric Evaluation of Responses to Pleasant and Malodour Stimulation in Human Subjects; Adaptation, Dose Response and Gender Differences”, Int. J. Psychophysiology, (2003). An additional discussion of the model as it applies to olfaction is set forth in Wang et al., “The correlation between physiological and psychological responses to odor stimulation in human subjects” Clinical Neurophysiology 113 (2002) 542-551 at page 546.
wherein Z is the percentage of odour pulses correctly identified;
Y is the pulse duration, or “pulse length” measured in units of microseconds; and
X is the inter-stimulus interval, “ISI”, measured in units of seconds.
FIG. 9C is a set of adaptation curves for the malodour, n-butyric acid, with the vertical axis being the “Z” axis, indicated by reference numeral 90C and the horizontal axis being the “X” axis indicated by reference numeral 92C. The graph indicated by reference numeral 97C and data points therefor 970C is for a pulse length of 35 microseconds. The graph indicated by reference numeral 96C and data points therefor 960C is for a pulse length of 50 microseconds. The graph indicated by reference numeral 95C and data points therefor 950C is for a pulse length of 75 microseconds. […]

CCCCCOC(C)=O [amyl acetate]
percentage of odour pulses correctly identified, Z (point 990D on curve 93D: inter-stimulus interval X1=15 seconds, FIG. 9D): 54%

CCCC(=O)O [n-butyric acid]
percentage of odour pulses correctly identified, Z (point 990C on curve 93C: inter-stimulus interval X1=12 seconds, FIG. 9C): 75%
